Source: ChEMBL document CHEMBL5512597, “Triazole hybrid compounds: A new frontier in malaria treatment” (Eur J Med Chem, 2023)
pEC50, pIC50: −log10 of the molar value. In brackets after ≈: the same amount, converted by molar mass. Each block holds one compound with its values, some of them ahead of it.

Tests used:
[1] = Inhibition of Plasmodium falciparum SR21
Plasmodium falciparum [2] = assay: Antimalarial activity against Plasmodium falciparum 3D7 assessed as inhibition of parasitemia incubated for 72 hrs by fluorescence based assay; assay type: functional, organism-based; details: 3D7, 72 h
[3] = Cytotoxicity against African green monkey Vero cells after 72 hrs by MTT assay; assay type: toxicity, cell-based; details: chlorocebus sabaeus
Plasmodium falciparum [4] = assay: Antimalarial activity against Plasmodium falciparum 3D7 at asexual stage infected in erythrocytes assessed as parasite growth inhibition incubated for 72 hrs by MSF assay; assay type: functional, organism-based; details: 3D7, Erythrocyte
Plasmodium falciparum [5] = assay: Antimalarial activity against CQ-sensitive Plasmodium falciparum 3D7 at trophozoite stage infected in O+ human erythrocytes assessed as parasite growth inhibition in presence of 297 uM thiamine by SYBR staining based analysis; assay type: functional, organism-based; details: 3D7, Erythrocyte
Plasmodium falciparum [6] = assay: Antimalarial activity against CQ-sensitive Plasmodium falciparum 3D7 at trophozoite stage infected in O+ human erythrocytes assessed as parasite growth inhibition in presence of 2.97 uM thiamine by SYBR staining based analysis; assay type: functional, organism-based; details: 3D7, Erythrocyte
Plasmodium falciparum [7] = assay: Antimalarial activity against CQ-sensitive Plasmodium falciparum D6 assessed as parasite growth inhibition by LDH assay; assay type: functional, organism-based
Plasmodium falciparum [8] = assay: Antimalarial activity against CQ-resistant Plasmodium falciparum W2 assessed as parasite growth inhibition by LDH assay; assay type: functional, organism-based
Plasmodium falciparum [9] = assay: Antimalarial activity against Plasmodium falciparum D6; assay type: functional, organism-based
Plasmodium falciparum [10] = assay: Antimalarial activity against Plasmodium falciparum W2; assay type: functional, organism-based
Plasmodium falciparum [11] = assay: Antimalarial activity against CQ-resistant Plasmodium falciparum RKL9 infected in O+ human RBCs assessed as parasite growth inhibition by SYBR Green I staining based assay; assay type: functional, organism-based; details: RKL9, Erythrocyte
Plasmodium falciparum [12] = assay: Antimalarial activity against CQ-sensitive Plasmodium falciparum 3D7 infected in O+ human RBCs assessed as parasite growth inhibition by SYBR Green I staining based assay; assay type: functional, organism-based; details: 3D7, Erythrocyte
Plasmodium falciparum [13] = assay: Antiplasmodial activity against CQ-susceptible Plasmodium falciparum 3D7 assessed as parasite growth inhibition incubated for 72 hrs by SYBR Green I staining based analysis; assay type: functional, organism-based; details: 3D7, 72 h
[14] = Cytotoxicity against African green monkey Vero cells assessed as cell growth inhibition incubated for 24 hrs by fluorescence based assay; assay type: toxicity; details: African green monkey (Chlorocebus sabaeus)
Plasmodium falciparum [15] = assay: Antiplasmodial activity against CQ-resistant Plasmodium falciparum W2 assessed as parasite growth inhibition incubated for 72 hrs by SYBR Green I staining based analysis; assay type: functional, organism-based; details: W2, 72 h
Plasmodium falciparum [16] = assay: Antimalarial activity against Plasmodium falciparum 3D7 by SYBR green dye based analysis; assay type: functional, organism-based
Plasmodium falciparum [17] = assay: Antimalarial activity against Plasmodium falciparum K1 assessed as parasite growth inhibition; assay type: functional, organism-based
Plasmodium falciparum [18] = assay: Antimalarial activity against Plasmodium falciparum 3D7 assessed as parasite growth inhibition; assay type: functional, organism-based
Plasmodium falciparum [19] = assay: Antimalarial activity against Plasmodium falciparum NF54 infected in human erythrocytes assessed as inhibition of parasitemia by giemsa staining based analysis; assay type: functional, organism-based; details: NF54, Erythrocyte
Plasmodium falciparum [20] = assay: Antiplasmodial activity against CQ-sensitive Plasmodium falciparum NF54 at asexual erythrocyte stage by LDH assay; assay type: functional, organism-based
Plasmodium falciparum [21] = assay: Antiplasmodial activity against CQ-resistant Plasmodium falciparum K1 at asexual erythrocyte stage by LDH assay; assay type: functional, organism-based
Plasmodium falciparum [22] = assay: Antiplasmodial activity against Plasmodium falciparum K1 at asexual stage assessed as parasite growth inhibition; assay type: functional, organism-based
Plasmodium falciparum [23] = assay: Antiplasmodial activity against CQ-sensitive Plasmodium falciparum NF54 at asexual stage assessed as parasite growth inhibition; assay type: functional, organism-based
Plasmodium falciparum [24] = assay: Antiplasmodial activity against Plasmodium falciparum 3D7 at asexual erythrocytic stage infected in human erythrocytes assessed as parasite growth inhibition incubated for 42 hrs by [3H]-hypoxanthine incorporation assay; assay type: functional, organism-based; details: 3D7, Erythrocyte
[25] = Cytotoxicity against human Huh-7 cells by MTT assay; assay type: toxicity, cell-based
Plasmodium knowlesi = assay: Antimalarial activity against Plasmodium knowlesi A1H1; assay type: functional, organism-based
Plasmodium falciparum [26] = assay: Antimalarial activity against Plasmodium falciparum 3D7 infected in A+ human erythrocytes assessed as reduction in parasite growth incubated for 72 hrs by SYBR Green I staining based analysis; assay type: functional, organism-based; details: 3D7, Erythrocyte
[27] = Cytotoxicity against human erythrocytes; assay type: toxicity, cell-based, Erythrocyte
Plasmodium falciparum [28] = assay: Antimalarial activity against Plasmodium falciparum Dd2 infected in A+ human erythrocytes assessed as reduction in parasite growth incubated for 72 hrs by SYBR Green I staining based analysis; assay type: functional, organism-based; details: Dd2, Erythrocyte

pIC50 [1]: 6.05
pIC50 (Plasmodium falciparum [2]): 5.18
Compound: O/N=C/c1cn(-c2ccc(Cl)cc2)nn1

pIC50 [1]: 5.81
pIC50 (Plasmodium falciparum [2]): 5.55
Compound: CCCCCCCCCC(=O)OCc1cn(-c2ccc(Cl)cc2)nn1

Compound: O=C(Cn1cc(COc2ccc(Br)cc2)nn1)NCCNc1ccnc2cc(Cl)ccc12
CC50 at 72 h [3]: 28.9 µM
pIC50 (Plasmodium falciparum [4]): 7.40

Compound: Cc1ncc(Cn2cc(CCOC(=O)c3cccc(Cl)c3)nn2)c(N)n1
pIC50 (Plasmodium falciparum [5]): 4.10
pIC50 (Plasmodium falciparum [6]): 4.21

Compound: Cc1ncc(Cn2cc(CCOC(=O)c3ccccc3)nn2)c(N)n1
pIC50 (Plasmodium falciparum [5]): < 3.70

Compound: O=C(Cn1cc(COc2ccc(Br)cc2)nn1)NCCCNc1ccnc2cc(Cl)ccc12
CC50 at 72 h [3]: 27.1 µM

Compound: O=C(Cn1cc(COc2ccc(Cl)cc2)nn1)NCCNc1ccnc2cc(Cl)ccc12
CC50 at 72 h [3]: 86.8 µM
pIC50 (Plasmodium falciparum [4]): 7.40

Compound: O=C(Cn1cc(-c2ccccc2)nn1)NCCCNc1ccnc2cc(Cl)ccc12
pIC50 (Plasmodium falciparum [4]): 6.86

Compound: O=C1c2nnn(Cc3cccc([N+](=O)[O-])c3)c2C(=O)c2nnn(Cc3cccc([N+](=O)[O-])c3)c21
pIC50 (Plasmodium falciparum [7]): 5.72
pIC50 (Plasmodium falciparum [8]): 5.54

pIC50 (Plasmodium falciparum [9]): 4.95
pIC50 (Plasmodium falciparum [10]): 5.18
Compound: CCCCCCCCCn1cc(C(=O)OC)nn1

pIC50 (Plasmodium falciparum [9]): 4.88
pIC50 (Plasmodium falciparum [10]): 5.18
Compound: CCCCCCCn1cc(CO)nn1

Compound: COc1ccccc1C(=O)/C=C/c1cn(Cc2cn(-c3ccnc4cc(Cl)ccc34)nn2)c2ccccc12
pIC50 (Plasmodium falciparum [11]): 5.45
pIC50 (Plasmodium falciparum [12]): 5.61

Compound: OB1OCc2cc(OCc3cn(CCN4CCN(c5ccnc6cc(Cl)ccc56)CC4)nn3)ccc21
pIC50 (Plasmodium falciparum [13]): 5.27
IC50 at 24 h [14]: 82.4 µM
pIC50 (Plasmodium falciparum [15]): 5.31

Compound: Cc1ccccc1C(=O)/C=C/c1cn(Cc2cn(-c3ccnc4cc(Cl)ccc34)nn2)c2ccccc12
pIC50 (Plasmodium falciparum [11]): 5.57
pIC50 (Plasmodium falciparum [12]): 5.74

pIC50 (Plasmodium falciparum [16]): 3.75
Compound: CCOC(=O)c1n[nH]c(-c2ccccn2)n1

Compound: O=C1c2nnn(Cc3cccc(Cl)c3)c2C(=O)c2nnn(Cc3cccc(Cl)c3)c21
pIC50 (Plasmodium falciparum [7]): 5.20
pIC50 (Plasmodium falciparum [8]): 5.12

Compound: COc1cc(/C=C/C(=O)c2ccc(Cl)cc2)ccc1OCc1cn(-c2ccnc3cc(Cl)ccc23)nn1
pIC50 (Plasmodium falciparum [17]): 5.45
pIC50 (Plasmodium falciparum [18]): 5.39

pIC50 (Plasmodium falciparum [19]): 4.37
Compound: Clc1ccc2c(Nc3nc[nH]n3)cccc2c1

Compound: Clc1ccc2c(NCCn3cc(-c4ccnc(-c5ccccn5)c4)nn3)ccnc2c1
pIC50 (Plasmodium falciparum [20]): 7.01
pIC50 (Plasmodium falciparum [21]): 6.56

Compound: Cc1cccc(Cn2nnc3c2C(=O)c2nnn(Cc4cccc(C)c4)c2C3=O)c1
pIC50 (Plasmodium falciparum [7]): 5.08
pIC50 (Plasmodium falciparum [8]): 5.18

Compound: COC(=O)C1=C(Cn2cc(CNc3ccnc4cc(Cl)ccc34)nn2)N(C)C(=O)NC1c1ccc(F)cc1 (stereo not drawn)
pIC50 (Plasmodium falciparum [22]): 6.30
pIC50 (Plasmodium falciparum [23]): 6.86

Compound: O=C1c2nnn(Cc3cccc(F)c3)c2C(=O)c2nnn(Cc3cccc(F)c3)c21
pIC50 (Plasmodium falciparum [7]): 6.17
pIC50 (Plasmodium falciparum [8]): 6.23

Compound: COc1cc(/C=C/C(=O)c2cc3ccccc3oc2=O)ccc1OCc1cn(-c2ccnc3cc(Cl)ccc23)nn1
pIC50 (Plasmodium falciparum [17]): < 5.30
pIC50 (Plasmodium falciparum [18]): < 5.30

Compound: Cc1cc(C)nc(NS(=O)(=O)c2ccc(-n3cc(COc4ccc([N+](=O)[O-])cc4)nn3)cc2)n1
IC50 (Plasmodium falciparum [24]): 6.2 µg/mL (≈ 12.9 µM)
CC50 [25]: 7.5 µg/mL (≈ 15.6 µM)

pEC50 (Plasmodium knowlesi): 4.54
Compound: O=C1CC(c2n[nH]c(=S)n2-c2ccccc2)CN1Cc1ccccc1 (stereo not drawn)

pIC50 [1]: 4.91
pIC50 (Plasmodium falciparum [2]): 4.53
Compound: Clc1cc(Cl)cc(-n2cc(/C=N/Nc3ccc(Br)cc3)nn2)c1

Compound: OB1OCc2cc(OCc3cn(-c4ccnc5ccc(Cl)cc45)nn3)ccc21
pIC50 (Plasmodium falciparum [13]): 5.31
pIC50 (Plasmodium falciparum [15]): 5.28

Compound: OB1OCc2cc(OCc3cn(CCNc4ccnc5cc(Cl)ccc45)nn3)ccc21
pIC50 (Plasmodium falciparum [13]): 5.38
IC50 at 24 h [14]: > 100 µM
pIC50 (Plasmodium falciparum [15]): 5.42

Compound: C[C@@H]1CC[C@H]2[C@@H](C)C(=O)O[C@@H]3O[C@@]4(C)CC[C@@H]1[C@]32OO4 [ARTEMISININ]
pIC50 (Plasmodium falciparum [10]): 7.03

Compound: CCN(CC)CCCC(C)Nc1ccnc2cc(Cl)ccc12 (stereo not drawn) [CHLOROQUINE]
pEC50 (Plasmodium falciparum [26]): 7.90
pEC50 (Plasmodium knowlesi): 6.68
CC50 [27]: > 100 µg/mL
CC50 at 72 h [3]: 112 µM
pEC50 (Plasmodium falciparum [28]): 6.78
